Test results published in patent US10519177B2, “Heterocyclic compounds and uses thereof” (Plexxikon Inc., priority 2013, dated 2019).
Like-named read-outs stand apart in the source and are kept apart here.

What was measured:
MV-4-11 cells = assay: Oncology cell growth assay MV-4-11 (CellTiter Glo); assay type: cell-based; settings: Homo sapiens, MV4-11, 72 h, read-out: Cell activity (IC50 μM) MV-4-11 3d-Growth
In short: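 MV-4-11 AML cells (MLL-AF4), 3000 per well, exposed to 8-point 1:3 compound titration from 10 μM top concentration (0.2% DMSO) for 72 h. Viability by CellTiter Glo luminescence, normalized to DMSO controls; pIC50 from four-parameter curve fit.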

BRD4-BD12 (1-477) = BRD4-BD12 (1-477) (Homo sapiens (Human), UniProt O60885); assay: Alphascreen binding assay BRD4-BD12; settings: BRD4(1 2) H4; read-out: Biochemical activity (IC50 μM) BRD4(1 2) H4
In short: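 First, compound was preincubated 1 h at room temperature with the His-tagged BRD4 protein (BD1 44-164 or tandem BD12 1-477) and acetylated H4 peptide. Next, donor and acceptor beads were added at 7.5 μg/ml final. After 30 min, AlphaScreen emission was recorded.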

bromodomain = assay: at least one of the bromodomain cell assays of Example 57; assay type: cell-based; settings: at least one of the bromodomain cell assays described in Example 57; read-out: IC50 in at least one of the bromodomain cell assays

With Cc1noc(C)c1-c1cnc2c(-c3ccnc(C4CC4)c3)cn(CC3CCC(F)(F)CC3)c2c1 [P-0407, 4-[3-(2-cyclopropyl-4-pyridyl)-1-[(4,4-difluorocyclohexyl)methyl]pyrrolo[3,2-b]pyridin-6-yl]-3,5-dimethyl-isoxazole] the IC50 (MV-4-11 cells) was < 1 µM, the IC50 (BRD4-BD12 (1-477)) was < 1 µM and the IC50 (bromodomain) was < 10 µM.

In the case of Cc1noc(C)c1-c1cnc2c(-c3ccc(=O)n(C)c3)cn(CC3CCC(F)(F)CC3)c2c1 [P-0408, 5-[1-[(4,4-difluorocyclohexyl)methyl]-6-(3,5-dimethylisoxazol-4-yl)pyrrolo[3,2-b]pyridin-3-yl]-1-methyl-pyridin-2-one], the IC50 (MV-4-11 cells) is reported as < 1 µM, the IC50 (BRD4-BD12 (1-477)) is reported as < 1 µM and the IC50 (bromodomain) is reported as < 10 µM.

CCn1cc(-c2cn(CC3CCC(F)(F)CC3)c3cc(-c4c(C)noc4C)cnc23)cn1 [P-0409, 4-[1-[(4,4-difluorocyclohexyl)methyl]-3-(1-ethylpyrazol-4-yl)pyrrolo[3,2-b]pyridin-6-yl]-3,5-dimethyl-isoxazole] was tested, and the IC50 (MV-4-11 cells) was < 1 µM, the IC50 (BRD4-BD12 (1-477)) was < 1 µM and the IC50 (bromodomain) was < 10 µM.

Cc1noc(C)c1-c1cnc2c(-c3cn(C)nc3C(F)(F)F)cn(CC3CCC(F)(F)CC3)c2c1 [P-0410, 4-[1-[(4,4-difluorocyclohexyl)methyl]-3-[1-methyl-3-(trifluoromethyl)pyrazol-4-yl]pyrrolo[3,2-b]pyridin-6-yl]-3,5-dimethyl-isoxazole] was tested, and the IC50 (MV-4-11 cells) was < 1 µM, the IC50 (BRD4-BD12 (1-477)) was < 1 µM and the IC50 (bromodomain) was < 10 µM.

In the case of Cc1noc(C)c1-c1cnc2c(-c3cccc(CC(=O)O)c3)cn(CC3CCC(F)(F)CC3)c2c1 [P-0411, 2-[3-[1-[(4,4-difluorocyclohexyl)methyl]-6-(3,5-dimethylisoxazol-4-yl)pyrrolo[3,2-b]pyridin-3-yl]phenyl]acetic acid], the IC50 (MV-4-11 cells) is reported as < 1 µM, the IC50 (BRD4-BD12 (1-477)) is reported as < 1 µM and the IC50 (bromodomain) is reported as < 10 µM.

For Cc1noc(C)c1-c1cnc2c(-c3ccc(C4(C(=O)O)CC4)cc3)cn(CC3CCC(F)(F)CC3)c2c1 [P-0412, 1-[4-[1-[(4,4-difluorocyclohexyl)methyl]-6-(3,5-dimethylisoxazol-4-yl)pyrrolo[3,2-b]pyridin-3-yl]phenyl]cyclopropanecarboxylic acid], the IC50 (MV-4-11 cells) was < 1 µM, the IC50 (BRD4-BD12 (1-477)) was < 1 µM and the IC50 (bromodomain) was < 10 µM.

With Cc1noc(C)c1-c1cnc2c(-c3ccc(CC(=O)O)cc3)cn(CC3CCC(F)(F)CC3)c2c1 [P-0413, 2-[4-[1-[(4,4-difluorocyclohexyl)methyl]-6-(3,5-dimethylisoxazol-4-yl)pyrrolo[3,2-b]pyridin-3-yl]phenyl]acetic acid] the IC50 (MV-4-11 cells) was < 1 µM, the IC50 (BRD4-BD12 (1-477)) was < 1 µM and the IC50 (bromodomain) was < 10 µM.

For Cc1noc(C)c1-c1cnc2c(-c3ccc(F)c(C(=O)O)c3)cn(CC3CCC(F)(F)CC3)c2c1 [P-0414, 5-[1-[(4,4-difluorocyclohexyl)methyl]-6-(3,5-dimethylisoxazol-4-yl)pyrrolo[3,2-b]pyridin-3-yl]-2-fluoro-benzoic acid], the IC50 (MV-4-11 cells) was < 1 µM, the IC50 (BRD4-BD12 (1-477)) was < 1 µM and the IC50 (bromodomain) was < 10 µM.

In the case of Cc1ccc(-c2cn(CC3CCC(F)(F)CC3)c3cc(-c4c(C)noc4C)cnc23)cc1C(=O)O [P-0415, 5-[1-[(4,4-difluorocyclohexyl)methyl]-6-(3,5-dimethylisoxazol-4-yl)pyrrolo[3,2-b]pyridin-3-yl]-2-methyl-benzoic acid], the IC50 (MV-4-11 cells) is reported as < 1 µM, the IC50 (BRD4-BD12 (1-477)) is reported as < 1 µM and the IC50 (bromodomain) is reported as < 10 µM.

For Cc1noc(C)c1-c1cnc2c(-c3ccc(C(=O)O)c(F)c3F)cn(CC3CCC(F)(F)CC3)c2c1 [P-0416, 4-[1-[(4,4-difluorocyclohexyl)methyl]-6-(3,5-dimethylisoxazol-4-yl)pyrrolo[3,2-b]pyridin-3-yl]-2,3-difluoro-benzoic acid], the IC50 (MV-4-11 cells) was < 1 µM, the IC50 (BRD4-BD12 (1-477)) was < 1 µM and the IC50 (bromodomain) was < 10 µM.

With Cc1noc(C)c1-c1cnc2c(-c3ccc(C(=O)O)cc3F)cn(CC3CCC(F)(F)CC3)c2c1 [P-0417, 4-[1-[(4,4-difluorocyclohexyl)methyl]-6-(3,5-dimethylisoxazol-4-yl)pyrrolo[3,2-b]pyridin-3-yl]-3-fluoro-benzoic acid] the IC50 (MV-4-11 cells) was < 1 µM, the IC50 (BRD4-BD12 (1-477)) was < 1 µM and the IC50 (bromodomain) was < 10 µM.

For COC(=O)c1ccc(-c2cn(CC3CCC(F)(F)CC3)c3cc(-c4c(C)noc4C)cnc23)cn1 [P-0418, methyl 5-[1-[(4,4-difluorocyclohexyl)methyl]-6-(3,5-dimethylisoxazol-4-yl)pyrrolo[3,2-b]pyridin-3-yl]pyridine-2-carboxylate], the IC50 (MV-4-11 cells) was < 1 µM, the IC50 (BRD4-BD12 (1-477)) was < 1 µM and the IC50 (bromodomain) was < 10 µM.

With Cc1nnn(C)c1-c1cnc2c(-c3cnn(C(F)F)c3)cn(CC3(F)CCC(F)(F)CC3)c2c1 [P-0419, 3-[1-(difluoromethyl)pyrazol-4-yl]-6-(3,5-dimethyltriazol-4-yl)-1-[(1,4,4-trifluorocyclohexyl)methyl]pyrrolo[3,2-b]pyridine] the IC50 (MV-4-11 cells) was < 1 µM, the IC50 (BRD4-BD12 (1-477)) was < 1 µM and the IC50 (bromodomain) was < 10 µM.

In the case of Cc1nnc(C)n1-c1cnc2c(-c3ccc(C(=O)O)cc3)cn(CC3CCC(F)(F)CC3)c2c1 [P-0420, 4-[1-[(4,4-difluorocyclohexyl)methyl]-6-(3,5-dimethyl-1,2,4-triazol-4-yl)pyrrolo[3,2-b]pyridin-3-yl]benzoic acid], the IC50 (MV-4-11 cells) is reported as 10 to 200 µM, the IC50 (BRD4-BD12 (1-477)) is reported as < 1 µM and the IC50 (bromodomain) is reported as < 10 µM.

With Cc1nnn(C)c1-c1cnc2c(-c3cnn(C)c3)cn(CC3(F)CCC(F)(F)CC3)c2c1 [P-0424, 6-(3,5-dimethyltriazol-4-yl)-3-(1-methylpyrazol-4-yl)-1-[(1,4,4-trifluorocyclohexyl)methyl]pyrrolo[3,2-b]pyridine] the IC50 (MV-4-11 cells) was < 1 µM, the IC50 (BRD4-BD12 (1-477)) was < 1 µM and the IC50 (bromodomain) was < 10 µM.

For CCn1cc(-c2cn(CC3CCC(F)(F)CC3)c3cc(-c4c(C)nnn4C)cnc23)cn1 [P-0427, 1-[(4,4-difluorocyclohexyl)methyl]-6-(3,5-dimethyltriazol-4-yl)-3-(1-ethylpyrazol-4-yl)pyrrolo[3,2-b]pyridine], the IC50 (MV-4-11 cells; MV-4-11, 3d growth) was < 1 µM, the IC50 (BRD4-BD12 (1-477)) was < 1 µM and the IC50 (bromodomain) was < 10 µM.

With Cc1noc(C)c1-c1cnc2c(c1)c(Cc1ccccc1Cl)cn2-c1ccc(C(=O)O)cn1 [P-0428, 6-[3-[(2-chlorophenyl)methyl]-5-(3,5-dimethylisoxazol-4-yl)pyrrolo[2,3-b]pyridin-1-yl]pyridine-3-carboxylic acid] the IC50 (MV-4-11 cells; MV-4-11, 3d growth) was 1 to 10 µM, the IC50 (BRD4-BD12 (1-477)) was < 1 µM and the IC50 (bromodomain) was < 10 µM.

For CCOC(=O)c1ccc(-n2cc(CC3CCC(F)(F)CC3)c3cc(-c4c(C)noc4C)cnc32)nc1 [P-0429, ethyl 6-[3-[(4,4-difluorocyclohexyl)methyl]-5-(3,5-dimethylisoxazol-4-yl)pyrrolo[2,3-b]pyridin-1-yl]pyridine-3-carboxylate], the IC50 (MV-4-11 cells; MV-4-11, 3d growth) was 1 to 10 µM, the IC50 (BRD4-BD12 (1-477)) was < 1 µM and the IC50 (bromodomain) was < 10 µM.

With Cc1noc(C)c1-c1cnc2c(c1)c(CC1CCC(F)(F)CC1)cn2-c1ccc(C(=O)O)cn1 [P-0430, 6-[3-[(4,4-difluorocyclohexyl)methyl]-5-(3,5-dimethylisoxazol-4-yl)pyrrolo[2,3-b]pyridin-1-yl]pyridine-3-carboxylic acid] the IC50 (MV-4-11 cells; MV-4-11, 3d growth) was < 1 µM, the IC50 (BRD4-BD12 (1-477)) was < 1 µM and the IC50 (bromodomain) was < 10 µM.

Cc1noc(C)c1-c1cnc2c(-c3ccc(C(=O)O)cc3)cn(Cc3ccccn3)c2c1 [P-0431, 4-[6-(3,5-dimethylisoxazol-4-yl)-1-(2-pyridylmethyl)pyrrolo[3,2-b]pyridin-3-yl]benzoic acid] was tested, and the IC50 (MV-4-11 cells; MV-4-11, 3d growth) was < 1 µM, the IC50 (BRD4-BD12 (1-477)) was < 1 µM and the IC50 (bromodomain) was < 10 µM.

In the case of Cc1noc(C)c1-c1cnc2c(-c3ccc(C(=O)O)cc3)cn(CC3CC(F)(F)C3)c2c1 [P-0432, 4-[1-[(3,3-difluorocyclobutyl)methyl]-6-(3,5-dimethylisoxazol-4-yl)pyrrolo[3,2-b]pyridin-3-yl]benzoic acid], the IC50 (MV-4-11 cells; MV-4-11, 3d growth) is reported as < 1 µM, the IC50 (BRD4-BD12 (1-477)) is reported as < 1 µM and the IC50 (bromodomain) is reported as < 10 µM.

With Cc1noc(C)c1-c1cnc2c(-c3ccc(C(C)(C)C(=O)O)cc3)cn(CC3CCC(F)(F)CC3)c2c1 [P-0433, 2-[4-[1-[(4,4-difluorocyclohexyl)methyl]-6-(3,5-dimethylisoxazol-4-yl)pyrrolo[3,2-b]pyridin-3-yl]phenyl]-2-methyl-propanoic acid] the IC50 (MV-4-11 cells; MV-4-11, 3d growth) was < 1 µM, the IC50 (BRD4-BD12 (1-477)) was < 1 µM and the IC50 (bromodomain) was < 10 µM.

With Cc1noc(C)c1-c1cnc2c(-c3ccc(C#N)cc3)cn(CC3CCC(F)(F)CC3)c2c1 [P-0434, 4-[1-[(4,4-difluorocyclohexyl)methyl]-6-(3,5-dimethylisoxazol-4-yl)pyrrolo[3,2-b]pyridin-3-yl]benzonitrile] the IC50 (MV-4-11 cells; MV-4-11, 3d growth) was < 1 µM, the IC50 (BRD4-BD12 (1-477)) was < 1 µM and the IC50 (bromodomain) was < 10 µM.

With COC(=O)c1ccc(-c2cn(Cc3ccccn3)c3cc(-c4c(C)noc4C)cnc23)cc1 [P-0435, methyl 4-[6-(3,5-dimethylisoxazol-4-yl)-1-(2-pyridylmethyl)pyrrolo[3,2-b]pyridin-3-yl]benzoate] the IC50 (MV-4-11 cells; MV-4-11, 3d growth) was < 1 µM, the IC50 (BRD4-BD12 (1-477)) was < 1 µM and the IC50 (bromodomain) was < 10 µM.

For Cn1cc(-c2cnc3c(-c4cnn(CC(F)(F)F)c4)cn(CC4CCC(F)(F)CC4)c3c2)ccc1=O [P-0436, 5-[1-[(4,4-difluorocyclohexyl)methyl]-3-[1-(2,2,2-trifluoroethyl)pyrazol-4-yl]pyrrolo[3,2-b]pyridin-6-yl]-1-methyl-pyridin-2-one], the IC50 (MV-4-11 cells; MV-4-11, 3d growth) was < 1 µM, the IC50 (BRD4-BD12 (1-477)) was < 1 µM and the IC50 (bromodomain) was < 10 µM.

Cn1cc(-c2cn(CC3CCC(F)(F)CC3)c3cc(-c4ccc(O)nc4)cnc23)cn1 [P-0437, 5-[1-[(4,4-difluorocyclohexyl)methyl]-3-(1-methylpyrazol-4-yl)pyrrolo[3,2-b]pyridin-6-yl]pyridin-2-ol] was tested, and the IC50 (MV-4-11 cells; MV-4-11, 3d growth) was < 1 µM, the IC50 (BRD4-BD12 (1-477)) was < 1 µM and the IC50 (bromodomain) was < 10 µM.
